From US6436963B1 (priority 1998, dated 2002)

How the values were obtained:
[1] = tested on: Erysiphe graminis; assay: Powdery Mildew of Wheat (ERYSGT), protectant spray test on wheat seedlings; assay type: in vivo; conditions: wheat (cultivar Monon), sprayed to run off at 100 ppm, inoculated after 24 hours
[2] = tested on: Phytophthora infestans; assay type: in vivo; conditions: tomatoes (cultivar Rutgers), sprayed to run off at 100 ppm, inoculated after 24 hours
[3] = tested on: Septoria tritici; conditions: wheat (cultivar Monon), sprayed to run off at 100 ppm, inoculated after 24 hours
[4] = tested on: Puccinia recondita; assay: Brown Rust (PUCCRT), protectant spray test on wheat seedlings; assay type: in vivo; conditions: wheat (cultivar Monon), sprayed to run off at 100 ppm, inoculated after 24 hours
[5] = tested on: Leptosphaeria nodorum; assay: Glume Blotch of Wheat (LEPTNO), protectant spray test on wheat seedlings; assay type: in vivo; conditions: wheat (cultivar Monon), sprayed to run off at 100 ppm, inoculated after 24 hours

SMILES	ERYSGT control of plant disease [1]	PHYTIN control of plant disease [2]	SEPTTR control of plant disease [3]	PUCCRT control of plant disease [4]	LEPTNO control of plant disease [5]
CNC(=O)C(=NOC)c1ccccc1COc1ncc(C(O)c2ccccc2)cc1C (racemic) [Example 13]	++ (++ = 75-100% control of plant disease)	++ (++ = 75-100% control of plant disease)	++ (++ = 75-100% control of plant disease)	++ (++ = 75-100% control of plant disease)	
CNC(=O)C(=NOC)c1ccccc1COc1ncc(C(O)c2ccc(Cl)cc2)cc1C (racemic) [Example 15]	++ (++ = 75-100% control of plant disease)	++ (++ = 75-100% control of plant disease)	++ (++ = 75-100% control of plant disease)	++ (++ = 75-100% control of plant disease)	
CNC(=O)C(=NOC)c1ccccc1COc1ncc(C(O)c2ccc(OC(F)(F)F)cc2)cc1Cl (racemic) [Example 16]	++ (++ = 75-100% control of plant disease)	− (− = 0-24% control of plant disease)	++ (++ = 75-100% control of plant disease)	++ (++ = 75-100% control of plant disease)	
CNC(=O)C(=NOC)c1ccccc1COc1ncc(C(O)c2ccc(F)cc2)cc1C (racemic) [Example 14]	++ (++ = 75-100% control of plant disease)	++ (++ = 75-100% control of plant disease)	++ (++ = 75-100% control of plant disease)	++ (++ = 75-100% control of plant disease)	
CNC(=O)C(=NOC)c1ccccc1COc1ncc(C(OC)c2ccc(OC(F)(F)F)cc2)cc1Cl (centres unmarked) [Example 79]	++ (++ = 75-100% control of plant disease)	− (− = 0-24% control of plant disease)		++ (++ = 75-100% control of plant disease)	++ (++ = 75-100% control of plant disease)
